Test results taken from patent US20230107216A1, “PANTETHEINE DERIVATIVES AND USES THEREOF” (Comet Therapeutics, Inc., priority 2018, published 2023).
Read-outs that look alike come from different tables or passages of the source.

Assays:
[1] = tested on: Very long-chain acyl-CoA dehydrogenase (VLCAD) primary fibroblasts GM17475; test: NADP+/NADPH (NADP/NADPH-Glo), VLCAD fibroblasts GM17475; assay type: cell-based; conditions: Homo sapiens, Fibroblast, 24h, read-out: Increase in Total NADP+ + NADPH
Experimental: Primary adherent fibroblasts were cultured in minimum essential medium (MEM) (Gibco, 25030081) supplemented with 2 mM L-Glutamine (Gibco, 25030081), 15% fetal bovine serum (FBS) (Gibco, 26400044) and 1% penicillin/streptomycin (Gibco, 5140122) at 37° C. and 5% CO2. Cells were collected for either passaging or experiment at ˜70-80% confluence. Cells were obtained by trypsinization and seeded in cell culture microplates either white plate (Thermo Fisher Scientific, 152028) for luminescent measurement or black plate (Thermo Fisher Scientific, 165305) for fluorescent based read out for different assays listed below. Cells were obtained by trypsinization and […] were seeded and allowed to adhere for 16-18 hours to have confluency around 70-80% in the cell well with culture media. After 24 hours prior to measurements (37° C., 5% CO2) media was changed to Dulbecco's Modified Eagle Medium (DMEM, Agilent Seahorse cat #103575-100) with the appropriate supplements as stated below.
Primary fibroblasts assayed were Propionic Acidemia (PA) (GM03590 Coriell Institute for Medical Research, Tsi 6337 Trans-Hit Bio), Methylmalonic Acidemia (MMA) (Tsi 5224 Trans-Hit Bio), Subnormal activation of pyruvate dehydrogenase complex (PDH) (GM01503 Coriell Institute for Medical Research), Very long-chain acyl-CoA dehydrogenase (VLCAD) (GM17475), Leigh Syndrome (LS) (GM03672, GM13411 Coriell Institute for Medical Research), Pyruvate Carboxylase Deficiency (PC) (GM00444 Coriell Institute for Medical Research). 10 μM of Compounds were added for 2 hours in PA, MMA lines and for 24h for the other fibroblast lines.
Assay was performed according to manufacturer instructions (NADP+/NADPH-Glo Assay Promega, G9082). Assay required a plate for total measurement of NADP+/NADPH and a plate for individual measurement of NADP+ or NADPH. For every assay a 12-point standard curve is prepared ranging from 400 nM to 0.625 nM. Media is removed and replaced with 50 μl of PBS for both assays.
For individual NADP+/NADPH measurements, 50 μl of 1% DTAB (Sigma, D5047) (cell lysis reagent) in 0.2N NaOH was added to the plates and 100 μl of lysate was split into two plates with 50 μl each from which ratio of NADP/NADPH can be calculated. 25 μl of 0.4N HCl were added to the NADP+ plates and both NADP+ and NADPH plates were heated at 60° C. for 15 minutes. The acid and heat treatment destroyed NADPH allowing individual NADP+ measurements while heating in basic conditions destroys NADP+ allowing individual NADPH measurement. After 15 minutes plates were allowed to come to room temperature and Trizma base (Sigma, T1699) was added to the NADP+ plates to neutralize the acid and HCl Trizma hydrochloride (Sigma, T2694) was added to the NADPH plates. The NADNADPH glo reagent was prepared by adding 125 μl of NAD cycling substrate, 125 μl of reductase, 125 μl of reductase substrate, 125 μl NAD cycling enzyme to a total of the 25 ml of NAD GLO reagent. 1:1 ratio of total volume of reagent was added to the individual NADP+, NADPH measurements (total 100 μl) and 50 μl were added for the total NAD/NADPH measurements. Luminescence was measured for 30-60 minutes within the linear range.
A total dead cell count was performed as described in Example 817 and only alive cells were used for analysis.

[2] = tested on: tyrosine hydroxylase positive mesencephalic neurons injured by 6-OHDA; test: Neuroprotective effect on damage induced by 6-OHDA on culture of mesencephalic neurons; assay type: cell-based; conditions: Rattus norvegicus, Neuron, 6-OHDA 15 μM, 48h, read-out: % reversion of TH positive neurons (6-OHDA-mediated degradation of dopaminergic neurons)
Experimental: The protective effect of compounds of the present disclosure was determined on 6-OHDA-mediated injury on mesencephalon neuronal cultures.
A female Wistar rat (Janvier; France) of 15 days gestation was terminated by cervical dislocation, the fetuses were removed from the uterus and their brains were harvested and placed in ice-cold medium (Leibovitz's L15 medium, Gibco). Only ventral mesencephalic flexure was used for the cell preparations. The midbrain was dissociated by trypsinization. The reaction was stopped, and the suspension was triturated and centrifuged. The pellet of dissociated cells was resuspended in chemically defined medium consisted of Neurobasal (Gibco, 21103049), containing B27 supplement (Gibco, A3582801) and L-glutamine (Gibco, 25030081), 10 ng/ml (BDNF; Pepro Tech, France, 450-02) and 1 ng/ml (GDNF; Pepro Tech, 450-51).
Viable primary rat embryo mesencephalic cells were counted and seeded on 96-multi-wells plate precoated with poly-L-lysine. Cells were maintained in a humidified incubator at 37° C. in 5% CO2-95% air atmosphere and medium changed on day 2. On day 6, the culture medium was removed and replaced by new media without neurotrophic factors containing the compounds of the present disclosure (50-10 μM) or vehicle (0.1% DMSO). After 1h exposure, injury of mesencephalon neuronal cultures was induced by 6-OHDA (15 μM) for further 48h. A mixture of the growth factors GDNF (1 ng/ml) and BDNF (10 ng/ml) were used as reference compound. On day 8, the tyrosine hydroxylase positive neurons were evaluated. Cultures were fixed 30 min at 4° C. with paraformaldehyde in PBS (4%, Sigma). After, cells were permeabilized with 0.1% Triton X100 for 30 min, saturated with PBS containing 3% of BSA (bovine serum albumin) and incubated 2h with anti-tyrosine hydroxylase antibody (Sigma, 1:10000; clone TH-2) at 1/10000 in PBS containing 0.5% of BSA. Cells were washed three times with PBS containing 0.5% of BSA and incubated 1h with goat anti mouse antibody coupled with AF488 (Invitrogen A11001) diluted at 1/1000 in PBS containing 0.5% of BSA. Finally, nuclei were stained with DAPI (Thermo fisher, D1306) at 1/1000 in PBS containing 0.5% of BSA. After rinsing with PBS, the plate was visualized and examined with Cell Insight HCS (Thermo Scientific) to determine the number of tyrosine hydroxylase positive cells per well.
The results for each well were expressed as a percentage by setting the density of tyrosine hydroxylase positive cells under control conditions to 100%. Then the result for each condition was reported as mean±SEM from 4 independent cultures.
A global analysis of the data was performed using a one-way analysis of variance (ANOVA), followed by Fisher's Protected Least Significant Difference when applicable. The level of significance was set to p<0.05.

[3] = tested on: Peripheral blood mononuclear cells co-cultured with venular endothelial cells (HUVEC) (LPS system); test: BioMAP LPS system; assay type: cell-based, human; conditions: procedure of Example 827; for inhibition at 10 µM / inhibition at 1 µM: Homo sapiens, HUVEC, 24 h
[4] = VLCAD GM17475 P10, assay condition A (10 mM glucose, 2 mM L-glutamine, 1 mM pyruvate, 10% FBS)
[5] = 10 uM, read-out: % decrease in IL-1α
[6] = VLCAD GM17475 P10, assay condition B (1 mM glucose, 2 mM L-glutamine, 1 mM pyruvate, 10% FBS)

Which activation at 10 µM [1, 4] does the source give for `CC(=O)SCCNC(=O)CCNC(=O)[C@H](O)C(C)(C)COC(=O)CCC(=O)O` [Compound 1242, (R)-12-hydroxy-13,13-dimethyl-2,7,11,16-tetraoxo-15-oxa-3-thia-6,10-diazanonadecan-19-oic acid] here?
The activation at 10 µM was at least 10%.

With `CC(C)(CO)[C@@H](O)C(=O)NCCC(=O)NCCSC(=O)CC(=O)CCC(=O)O` [Compound 2, 6-[(2-[3-[(2R)-2,4-dihydroxy-3,3-dimethylbutanamido]propanamido]ethyl)sulfanyl]-4,6-dioxohexanoic acid] as the molecule, how does the activation at 10 µM [1, 4] read?
The activation at 10 µM was at least 10%.

With `CC(O)C(C(=O)SCCNC(=O)CCNC(=O)[C@H](O)C(C)(C)CO)C(C)O` (stereo partly drawn) [Compound 1285, (2R)-2,4-dihydroxy-N-[2-[(2-[[3-hydroxy-2-(1-hydroxyethyl)butanoyl]sulfanyl]ethyl)carbamoyl]ethyl]-3,3-dimethylbutanamide] as the molecule, how does the activation at 10 µM [1, 4] read?
The activation at 10 µM was at least 10%.

What does the source list for `CC(C)(COC(=O)OCC[N+](C)(C)C)[C@@H](O)C(=O)NCCC(=O)NCCSC(=O)CCC(=O)O` [Compound 116, [2-([[(3R)-3-[[2-([2-[(3-carboxypropanoyl)sulfanyl]ethyl]carbamoyl)ethyl]carbamoyl]-3-hydroxy-2,2-dimethylpropoxy]carbonyl]oxy)ethyl]trimethylazanium]?
inhibition at 10 µM [2]: ≥ 30%; inhibition at 10 µM [3, 5]: ≥ 10%

For `CCC(=O)CC(=O)SCCNC(=O)CCNC(=O)[C@H](O)C(C)(C)CO` [Compound 382, (2R)-2,4-dihydroxy-3,3-dimethyl-N-[2-([2-[(3-oxopentanoyl)sulfanyl]ethyl]carbamoyl)ethyl]butanamide], which activation at 10 µM [1, 4] is on record?
The activation at 10 µM was at least 10%.

For `CC(O)CC(O)CC(O)CC(=O)SCCNC(=O)CCNC(=O)[C@H](O)C(C)(C)CO` (stereo partly shown) [Compound 401], which activation at 10 µM [1, 6] is on record?
Its activation at 10 µM is at least 10%.

`CC(C)(CO)[C@@H](O)C(=O)NCCC(=O)NCCSC(=O)CCC(=O)O` [Compound 1, (R)-4-((2-(3-(2,4-dihydroxy-3,3-dimethylbutanamido)propanamido)ethyl)thio)-4-oxobutanoic acid] was tested. Which inhibition at 10 µM [2] did it give?
The inhibition at 10 µM was at least 10%.

How did the inhibition at 50 µM [2] turn out when `CC(=O)SCCNC(=O)CCNC(=O)[C@H](O)C(C)(C)COC(=O)[C@@H](N)Cc1ccc(O)c(O)c1` [Compound 498, (3R)-3-[(2-[[2-(acetylsulfanyl)ethyl]carbamoyl]ethyl)carbamoyl]-3-hydroxy-2,2-dimethylpropyl (2S)-2-amino-3-(3,4-dihydroxyphenyl)propanoate] was run?
Its inhibition at 50 µM is at least 30%.

What about the “% decrease in sTNFα” value ([3]; 1 uM) of the same molecule?
Its value is at least 10%.

What about the inhibition at 1 µM ([3]; 1 uM, read-out: % decrease in IL-8) of the same molecule?
The inhibition at 1 µM was at least 20%.

And the inhibition at 1 µM ([3]; 1 uM, read-out: % decrease in sPGE2)?
Its inhibition at 1 µM is at least 10%.

And the inhibition at 10 µM [3, 5]?
Its inhibition at 10 µM is at least 10%.

What does the source list for `CC(C)(CO)[C@@H](O)C(=O)NCCC(=O)NCCSC(=O)[C@@H](N)Cc1ccc(O)c(O)c1` [Compound 371, (2R)—N-[2-[(2-[[(2S)-2-amino-3-(3,4-dihydroxyphenyl)propanoyl]sulfanyl]ethyl)carbamoyl]ethyl]-2,4-dihydroxy-3,3-dimethylbutanamide]?
inhibition at 50 µM [2]: ≥ 30%; % decrease in sTNFα ([3]; 10 uM): ≥10%; inhibition at 1 µM ([3]; 1 uM, read-out: % decrease in IL-1α): ≥ 10%; inhibition at 10 µM ([3]; 10 uM, read-out: % decrease in IL-8): ≥ 10%; inhibition at 10 µM ([3]; 10 uM, read-out: % decrease in sPGE2): ≥ 10%

Which activation at 10 µM [1, 4] does the source give for `CC(=O)OCC(C)(C)[C@@H](OC(C)=O)C(=O)NCCC(=O)NCCSC(C)=O` [Compound 1264, (1R)-3-(acetyloxy)-1-[(2-[[2-(acetylsulfanyl)ethyl]carbamoyl]ethyl)carbamoyl]-2,2-dimethylpropyl acetate] here?
The activation at 10 µM was at least 10%.

With `COC(=O)CC(C(C)=O)C(=O)SCCNC(=O)CCNC(=O)[C@H](O)C(C)(C)CO` (stereo partly shown) [Compound 410] as the molecule, how does the activation at 10 µM [1, 4] read?
The activation at 10 µM was at least 10%.

Which inhibition at 10 µM [2] does the source give for `C[C@@H](O)CC(=O)SCCNC(=O)CCNC(=O)[C@H](O)C(C)(C)CO` [Compound 38, S-2-{3-[(R)-2,4-dihydroxy-3,3-dimethylbutyrylamino]propionylamino} ethyl (R)-3-hydroxybutanethioate] here?
The inhibition at 10 µM was at least 30%.

Which activation at 10 µM [1, 4] does the source give for `CC[C@@H](O)CC(=O)SCCNC(=O)CCNC(=O)[C@H](O)C(C)(C)CO` [Compound 1245, (2R)-2,4-dihydroxy-N-{2-[(2-{[(3R)-3-hydroxypentanoyl]sulfanyl}ethyl)carbamoyl]ethyl}-3,3-dimethylbutanamide] here?
Its activation at 10 µM is at least 10%.

How did the activation at 10 µM [1, 6] turn out when `CC(O)CC(O)CC(=O)SCCNC(=O)CCNC(=O)[C@H](O)C(C)(C)CO` (stereo partly shown) [Compound 400] was run?
Its activation at 10 µM is at least 10%.

`CC(=O)SCCNC(=O)CCNC(=O)[C@H](O)C(C)(C)COC(=O)CN` [Compound 560, (3R)-3-[(2-[[2-(acetylsulfanyl)ethyl]carbamoyl]ethyl)carbamoyl]-3-hydroxy-2,2-dimethylpropyl 2-aminoacetate] was tested. Which inhibition at 10 µM [2] did it give?
Its inhibition at 10 µM is at least 30%.

How did the inhibition at 50 µM [2] turn out when `CC(C)(CO)[C@@H](O)C(=O)NCCC(=O)NCCSC(=O)CCCN` [Compound 370, (2R)—N-[2-([2-[(4-aminobutanoyl)sulfanyl]ethyl]carbamoyl)ethyl]-2,4-dihydroxy-3,3-dimethylbutanamide] was run?
The inhibition at 50 µM was at least 30%.
